Drawing on US20240409609A1, “REVERSIBLE LYSINE COVALENT MODIFIERS OF EGFR AND USES THEREOF” (Terremoto Biosciences, Inc., priority 2021, published 2024), this text covers IC50 for 33 compounds.

Bounds are passed on as bounds.

One assay concerns the target EGFR WT (Homo sapiens (Human), UniProt P00533). The experiment in a line: EGFR biochemical assay (AssayQuant chelation-enhanced fluorescence). Particulars: 30 min preincubation, reaction time 360 min.
The next assay has as its target EGFR WT in Ba/F3 cells (Homo sapiens (Human), UniProt P00533). In words: Ba/F3 pEGFR assay (AlphaLISA p-EGFR Tyr1068). In kind it is cell-based. Particulars: 2 hrs treatment, media supplemented with EGF. On the procedure:
Cellular activity was determined using the Ba/F3 system for studying oncogenic mutant kinases (Warmuth 2007). […] Transduced cells were maintained in RPMI 1640 with 10% FBS. EGFR WT transduced cells were grown in media supplemented with EGF. To assay cellular activity of inhibitors, cells were treated with inhibitor from 1000X DMSO stock dilutions and incubated for 2 hrs at 37° C. 5% CO2. Subsequently, p-EGFR (Tyr1068) was quantified using a commercial sandwich immunoassay (PerkinElmer AlphaLISA SureFire assay; ALSU-PEGFR) according to the manufacturer's instructions. […] Curr Opin Oncol 19, 55-60 (2007), which is incorporated herein in its entirety.

Sequence of EGFR WT (P00533 668-1210): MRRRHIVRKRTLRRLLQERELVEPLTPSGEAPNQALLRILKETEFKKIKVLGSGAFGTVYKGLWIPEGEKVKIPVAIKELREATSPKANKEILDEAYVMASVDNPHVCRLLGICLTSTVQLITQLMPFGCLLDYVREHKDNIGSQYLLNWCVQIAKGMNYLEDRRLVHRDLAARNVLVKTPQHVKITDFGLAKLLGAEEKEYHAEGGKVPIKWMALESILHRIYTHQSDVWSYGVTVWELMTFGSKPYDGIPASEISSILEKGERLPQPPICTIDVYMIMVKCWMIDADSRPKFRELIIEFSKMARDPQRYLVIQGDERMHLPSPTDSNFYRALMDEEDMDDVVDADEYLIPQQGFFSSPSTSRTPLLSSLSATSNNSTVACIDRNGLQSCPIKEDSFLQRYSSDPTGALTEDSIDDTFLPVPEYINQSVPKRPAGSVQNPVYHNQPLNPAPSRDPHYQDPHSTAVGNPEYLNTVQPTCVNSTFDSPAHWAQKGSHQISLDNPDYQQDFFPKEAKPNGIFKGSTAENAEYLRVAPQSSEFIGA
Sequence of EGFR WT in Ba/F3 cells (P00533 25-1210): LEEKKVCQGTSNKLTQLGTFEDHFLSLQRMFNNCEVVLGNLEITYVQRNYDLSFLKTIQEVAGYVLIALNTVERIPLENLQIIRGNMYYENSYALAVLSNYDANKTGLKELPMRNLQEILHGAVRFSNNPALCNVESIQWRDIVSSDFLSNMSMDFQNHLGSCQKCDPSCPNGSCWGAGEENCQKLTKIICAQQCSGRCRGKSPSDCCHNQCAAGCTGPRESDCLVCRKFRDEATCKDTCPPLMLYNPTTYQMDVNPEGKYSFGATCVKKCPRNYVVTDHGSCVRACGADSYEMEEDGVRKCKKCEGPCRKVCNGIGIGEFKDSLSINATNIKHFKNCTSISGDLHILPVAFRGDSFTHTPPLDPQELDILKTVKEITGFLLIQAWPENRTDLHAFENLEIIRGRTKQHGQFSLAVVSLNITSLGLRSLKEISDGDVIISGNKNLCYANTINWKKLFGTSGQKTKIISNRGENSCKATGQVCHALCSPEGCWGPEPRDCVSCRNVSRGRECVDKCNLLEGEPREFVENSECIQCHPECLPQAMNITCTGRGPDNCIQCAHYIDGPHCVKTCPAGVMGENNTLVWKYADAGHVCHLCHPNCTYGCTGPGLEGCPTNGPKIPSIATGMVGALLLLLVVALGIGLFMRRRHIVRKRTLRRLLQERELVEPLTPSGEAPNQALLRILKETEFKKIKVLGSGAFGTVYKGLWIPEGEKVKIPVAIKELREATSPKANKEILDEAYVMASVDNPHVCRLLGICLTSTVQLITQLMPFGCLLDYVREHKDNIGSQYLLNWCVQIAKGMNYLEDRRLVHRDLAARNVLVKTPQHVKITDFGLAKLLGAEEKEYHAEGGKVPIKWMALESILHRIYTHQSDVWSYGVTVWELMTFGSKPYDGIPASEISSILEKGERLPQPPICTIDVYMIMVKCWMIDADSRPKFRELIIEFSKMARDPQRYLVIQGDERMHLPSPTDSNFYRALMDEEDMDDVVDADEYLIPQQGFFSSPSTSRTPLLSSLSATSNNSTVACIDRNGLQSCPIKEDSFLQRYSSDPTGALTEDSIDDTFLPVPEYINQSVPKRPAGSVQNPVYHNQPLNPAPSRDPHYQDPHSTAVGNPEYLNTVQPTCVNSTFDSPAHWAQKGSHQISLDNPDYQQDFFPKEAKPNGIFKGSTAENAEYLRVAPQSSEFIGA

Regarding `CC(C)(O)Cn1/c(=N/C(=O)c2ccnc(Oc3cccc(O)c3C=O)c2)[nH]c2ccc(CN3CC(C(C)(C)O)C3)cc21` [Compound 63, (E)-2-(2-formyl-3-hydroxyphenoxy)-N-(1-(2-hydroxy-2-methylpropyl)-6-((3-(2-hydroxypropan-2-yl)azetidin-1-yl)methyl)-1,3-dihydro-2H-benzo[d]imidazol-2-ylidene)isonicotinamide], the half-inhibitory concentration (IC50) was 0.00855 µM on EGFR WT and 4.09 µM at EGFR WT in Ba/F3 cells.
With `CN1CCN(Cc2ccc3[nH]/c(=N\C(=O)c4ccnc(Oc5cccc(O)c5C=O)c4)n(CC(C)(C)O)c3c2)CC1` [Compound 64], the IC50 at EGFR WT was 0.00896 µM; on EGFR WT in Ba/F3 cells, 1.42 µM.
On the same counts, the results for `CC(C)Cn1/c(=N/C(=O)c2ccnc(Oc3cccc(O)c3C=O)c2)[nH]c2ccc(CN3CCN(C)CC3)cc21` [Compound 65] are 0.0101 µM and 3.55 µM.
On the same counts, the results for `CN1CCN(Cc2ccc3[nH]/c(=N\C(=O)c4ccnc(Oc5cc(F)cc(O)c5C=O)c4)n(CC(C)(C)O)c3c2)CC1` [Compound 66] are 0.0186 µM and 2.95 µM.
On the same counts, the results for `CN1CCN(Cc2ccc3[nH]/c(=N\C(=O)c4ccnc(Oc5c(F)ccc(O)c5C=O)c4)n(CC(C)(C)O)c3c2)CC1` [Compound 68] are 0.00973 µM and 3.47 µM.
`CN1CCN(Cc2ccc3[nH]/c(=N\C(=O)c4ccnc(C#Cc5cccc(NS(C)(=O)=O)c5C=O)c4)n(CC(C)(C)O)c3c2)CC1` [Compound 69]: the half-maximal inhibitory concentration (IC50) at EGFR WT is 0.0582 µM; against EGFR WT in Ba/F3 cells, greater than 10 µM.
On the same counts, the results for `CC(C)(O)Cn1/c(=N/C(=O)c2ccnc(Oc3cccc(O)c3C=O)c2)[nH]c2ccc(N3CCC(C(C)(C)O)CC3)cc21` [Compound 70] are 0.0115 µM and 4.58 µM.
On the same counts, the results for `CN1CCN(C(=O)c2ccc3[nH]/c(=N\C(=O)c4ccnc(Oc5cccc(O)c5C=O)c4)n(CC(C)(C)O)c3c2)CC1` [Compound 71] are 0.0104 µM and 4.95 µM.
The like results for `CN1CCN(Cc2ccc3[nH]/c(=N\C(=O)c4ccnc(C#Cc5ccc(F)c(O)c5C=O)c4)n(CC(C)(C)O)c3c2)CC1` [Compound 72] were, in that order, 0.0078 µM and greater than 10 µM.
For `CN1CCN(Cc2ccc3[nH]/c(=N\C(=O)c4ccc(Oc5cccc(O)c5C=O)s4)n(CC(C)(C)O)c3c2)CC1` [Compound 73], the IC50 at EGFR WT is 0.0101 µM; at EGFR WT in Ba/F3 cells it was 5 µM.
On the same counts, the results for `CC(C)(O)Cn1/c(=N/C(=O)c2ccnc(Oc3cccc(O)c3C=O)c2)[nH]c2ccc(N3CCOCC3)cc21` [Compound 74] are 0.00875 µM and 3.23 µM.
On the same counts, the results for `COCCN1CCN(Cc2ccc3[nH]/c(=N\C(=O)c4ccnc(Oc5cccc(O)c5C=O)c4)n(CC(C)(C)O)c3c2)CC1` [Compound 75] are 0.0146 µM and 3 µM.
The like results for `CC(C)(O)Cn1/c(=N/C(=O)c2ccnc(Oc3cccc(O)c3C=O)c2)[nH]c2ccc(CN3CCOCC3)cc21` [Compound 76] were, in that order, 0.0135 µM and 2.37 µM.
Regarding `CN1CCN(Cc2ccc3[nH]/c(=N\C(=O)c4ccnc(Oc5ccc(F)c(O)c5C=O)c4)n(CC(C)(C)O)c3c2)CC1` [Compound 77], the IC50 on EGFR WT was 0.0237 µM; against EGFR WT in Ba/F3 cells it was greater than 8.08 µM.
In the case of `CC(C)(O)Cn1/c(=N/C(=O)c2ccnc(C#Cc3cccc(O)c3C=O)c2)[nH]c2ccc(CN3CCOCC3)cc21` [Compound 78], the IC50 on EGFR WT was 0.00881 µM; at EGFR WT in Ba/F3 cells it was greater than 10 µM.
Regarding `CC(C)(O)Cn1/c(=N/C(=O)c2ccnc(Oc3cccc(O)c3C=O)c2)[nH]c2ccc(CN3CCC(C(C)(C)O)CC3)cc21` [Compound 80], the results for the IC50 on EGFR WT and against EGFR WT in Ba/F3 cells were 0.0109 µM and 4.77 µM, respectively.
On the same counts, the results for `CN1CCN(Cc2ccc3[nH]/c(=N\C(=O)c4cc(C=O)nc(Oc5cccc(O)c5C=O)c4)n(CC(C)(C)O)c3c2)CC1` [Compound 81] are 0.028 µM and greater than 10 µM.
In the case of `CN1CCN(Cc2ccc3[nH]/c(=N\C(=O)c4ccnc(Oc5cccc(O)c5C=O)c4F)n(CC(C)(C)O)c3c2)CC1` [Compound 82], the IC50 at EGFR WT is 0.0679 µM; at EGFR WT in Ba/F3 cells, greater than 10 µM.
The like results for `CN1CCN(Cc2ccc3[nH]/c(=N\C(=O)c4ccnc(-n5ccc(-c6cccc(O)c6C=O)n5)c4)n(CC(C)(C)O)c3c2)CC1` [Compound 83] were, in that order, 0.131 µM and greater than 10 µM.
The like results for `COC(=O)Nc1cccc(C#Cc2cc(C(=O)/N=c3\[nH]c4ccc(CN5CCN(C)CC5)cc4n3CC(C)(C)O)ccn2)c1C=O` [Compound 84] were, in that order, 0.061 µM and 0.879 µM.
On the same counts, the results for `CN1CCN(Cc2ccc3[nH]/c(=N\C(=O)c4ccnc(-n5cc(-c6cccc(O)c6C=O)cn5)c4)n(CC(C)(C)O)c3c2)CC1` [Compound 85] are 0.0521 µM and greater than 8.83 µM.
Take `CN1CCN(Cc2ccc3[nH]/c(=N\C(=O)c4cc(Cl)nc(Cc5cccc(O)c5C=O)c4)n(CC(C)(C)O)c3c2)CC1` [Compound 86]: the IC50 at EGFR WT was 0.0238 µM; against EGFR WT in Ba/F3 cells, greater than 10 µM.
The like results for `CN1CCN(Cc2ccc3[nH]/c(=N\C(=O)c4ccnc(C#Cc5cccc(NC(=O)C6CC6)c5C=O)c4)n(CC(C)(C)O)c3c2)CC1` [Compound 87] were, in that order, 0.042 µM and 0.267 µM.
On the same counts, the results for `CN1CCN(Cc2ccc3[nH]/c(=N\C(=O)c4ccnc(-c5cnn(-c6cccc(O)c6C=O)c5)c4)n(CC(C)(C)O)c3c2)CC1` [Compound 88] are 0.108 µM and greater than 9.97 µM.
`CN1CCN(Cc2ccc3[nH]/c(=N\C(=O)c4ccnc(C#Cc5cc(F)cc(O)c5C=O)c4)n(CC(C)(C)O)c3c2)CC1` [Compound 89]: the IC50 on EGFR WT is 0.0491 µM; on EGFR WT in Ba/F3 cells, greater than 5.82 µM.
The like results for `CC(=O)Nc1cccc(C#Cc2cc(C(=O)/N=c3\[nH]c4ccc(CN5CCN(C)CC5)cc4n3CC(C)(C)O)ccn2)c1C=O` [Compound 90] were, in that order, 0.0854 µM and 0.95 µM.
On the same counts, the results for `CN1CCN(C2CCN(c3ccc4c(c3)[nH]/c(=N\C(=O)c3ccnc(Oc5cccc(O)c5C=O)c3)n4CC(C)(C)O)CC2)CC1` [Compound 91] are 0.0493 µM and greater than 10 µM.
The like results for `CN1CCN(Cc2ccc3[nH]/c(=N\C(=O)c4ccnc(Oc5ccccc5C=O)c4)n(CC(C)(C)O)c3c2)CC1` [Compound 92] were, in that order, 0.296 µM and 9.06 µM.
As for `CN1CCN(Cc2ccc3[nH]/c(=N\C(=O)c4cccc(Oc5cccc(O)c5C=O)n4)n(CC(C)(C)O)c3c2)CC1` [Compound 93], the 50% inhibitory concentration (IC50) on EGFR WT was 0.49 µM; on EGFR WT in Ba/F3 cells it was greater than 10 µM.
The like results for `CN1CCN(Cc2ccc3[nH]/c(=N\C(=O)c4ccnc(-c5ccn(-c6cccc(O)c6C=O)n5)c4)n(CC(C)(C)O)c3c2)CC1` [Compound 94] were, in that order, 0.444 µM and greater than 10 µM.
For the compound `CC(=O)Nc1cccc(-c2cnn(-c3cc(C(=O)/N=c4\[nH]c5ccc(CN6CCN(C)CC6)cc5n4CC(C)(C)O)ccn3)c2)c1C=O` [Compound 95], the IC50 came to 0.721 µM at EGFR WT and 5.78 µM against EGFR WT in Ba/F3 cells.
On the same counts, the results for `CC(=O)Nc1cccc(C#Cc2cc(C(=O)/N=c3\[nH]c4ccc(CN5CCN(C)CC5)cc4n3CC(C)(C)O)cc(C)n2)c1C=O` [Compound 97] are 0.115 µM and 7.95 µM.
`CC(=O)Nc1cccc(Oc2cc(C(=O)/N=c3\[nH]c4ccc(CN5CCN(C)CC5)cc4n3CC(C)(C)O)ccn2)c1C=O` [Compound 98]: the IC50 on EGFR WT came to 0.148 µM; against EGFR WT in Ba/F3 cells, 1.83 µM.

What is called IC50 is the midpoint of a concentration-inhibition curve.
